In patent US8546442B2, “Pyrazolopiperidine compounds as CCR1 receptor antagonists” (Boehringer Ingelheim International GmbH, priority 2010, dated 2013):
pIC50: −log10 of the molar value.

How the values were obtained:
[1] = biological target: T1, CCR1 (Homo sapiens, UniProt P32246); test: calcium flux in CCR1 transfected cells, Method A (Fluo-4 NW, FLIPR TETRA); assay type: cell-based; conditions: cells stably expressing recombinant CCR1 and G-alpha-16, MIP-1 alpha at EC80
T1 sequence (P32246 1-355): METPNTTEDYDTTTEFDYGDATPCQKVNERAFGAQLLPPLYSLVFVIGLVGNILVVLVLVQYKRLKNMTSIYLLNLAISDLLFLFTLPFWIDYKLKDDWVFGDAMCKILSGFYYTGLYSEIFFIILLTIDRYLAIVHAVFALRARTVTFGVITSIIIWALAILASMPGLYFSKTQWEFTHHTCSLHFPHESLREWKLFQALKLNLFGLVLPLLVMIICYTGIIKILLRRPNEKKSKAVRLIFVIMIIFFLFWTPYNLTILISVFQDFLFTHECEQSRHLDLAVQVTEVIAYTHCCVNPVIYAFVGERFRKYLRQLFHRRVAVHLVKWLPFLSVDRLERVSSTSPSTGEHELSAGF
Experimental: (§1) Compounds are assessed for the ability to block the interaction of CCR1 and MIP-1α in a functional cellular assay measuring calcium flux in CCR1 transfected cells.
Method A: Non-adherent cells purchased from Chemicon Corporation (HTS005C), stably expressing recombinant CCR1 and G-alpha-16 are grown in RPMI 1640 medium (Mediatech 10-080-CM) supplemented with 10% heat-inactivated FBS, 0.4 mg/mL Geneticin and penicillin/streptomycin. On the day of the assay, the cells are transferred to a beaker and dye-loaded in bulk using a Fluo-4 NW Calcium Assay Kit with probenecid (Invitrogen F36205) at 0.8E6 cells/mL for 1 hour at room temperature. After 1 hour, they are seeded in a 384-well tissue culture-treated plate at a density of 20,000 cells/well. Appropriately diluted test compound is added to the well to achieve a top concentration of 3,000 nM (diluted 4-fold with 10 doses total). The final concentration of DMSO is 1%. The buffer is HBSS (Invitrogen 14025) with 20 mM HEPES at pH 7.4. The cells are allowed to incubate 1 hour in the dark at room temperature. The plates are transferred to the FLIPR TETRA where MIP-1 alpha in 1% BSA is added at the EC80 final concentration. Wells+/−MIP-1 alpha containing diluted DMSO instead of compound serve as the controls. Intracellular calcium flux is recorded on the FLIPR TETRA, using excitation at 470/495 nm and emission at 515/575 nm. Data are analyzed using Activity Base software.

[2] = biological target: T1, CCR1; test: calcium flux in CCR1 transfected cells, Method B (Calcium 4 dye, HAMAMATSU FDSS6000); assay type: cell-based; conditions: cells stably expressing recombinant CCR1 and G-alpha-16, MIP-1alpha at EC80
Experimental: as §1
Method B: Non-adherent cells purchased from Chemicon Corporation (HTS005C), stably expressing recombinant CCR1 and G-alpha-16 are grown in RPMI 1640 medium (Mediatech 10-080-CM) supplemented with 10% FBS, 0.4 mg/mL Geneticin and penicillin/streptomycin. On the day of the assay, the cells are loaded with Calcium 4 dye (Molecular Devices R7448) with Probenecid (Invitrogen P346400) at 8E5 cells/mL for 1 hour at room temperature. After 1 hour, they are seeded in a 384-well tissue culture-treated plate at a density of 20,000 cells/well. Appropriately diluted test compound is added to the well to achieve a top concentration of 3,000 nM (diluted 4-fold with 10 doses total). The final concentration of DMSO is 1%. The buffer is HBSS (Invitrogen 14025) with 20 mM HEPES at pH 7.4. The cells incubate 30 minutes at 37 C and then 30 minutes at room temperature. The plates are transferred to the HAMAMATSU FDSS6000 where MIP-1alpha in 1% BSA is added at the EC80 final concentration. All plates must be read within 4 hours of the start of dye-loading. Wells+/−MIP-1alpha containing diluted DMSO instead of compound serve as the controls. Data are analyzed using Activity Base software.

| Compound | pIC50 [1] | pIC50 [2] |
| --- | --- | --- |
| CNS(=O)(=O)c1ccc(CNC(=O)N2CCCc3c2cnn3-c2ccc(F)cc2)cc1 [Example 22] | 7.66 | 8.30 |
| CS(=O)(=O)c1cccc(CNC(=O)N2CCCc3c2cnn3-c2ccc(F)cc2)c1 [Example 23] | 7.51 | 7.66 |
| CCCC(NC(=O)N1CCCc2c1cnn2-c1ccc(F)cc1)c1cncc(S(C)(=O)=O)c1 (centres unmarked) [Example 24] | 9.22 |  |
| CS(=O)(=O)c1ccc(CNC(=O)N2CCCc3c2cnn3-c2ccc(F)cc2)cc1 [Example 25] | 7.29 | 7.19 |
| COCCNS(=O)(=O)c1ccc(CNC(=O)N2CCCc3c2cnn3-c2ccc(F)cc2)cc1 [Example 26] | 8.22 | 8.40 |
| O=C(NCc1ccc(S(=O)(=O)NC2CCOCC2)cc1)N1CCCc2c1cnn2-c1ccc(F)cc1 [Example 28, 1-(4-Fluorophenyl)-1,5,6,7-tetrahydro-pyrazolo[4,3-b]pyridine-4-carboxylic acid 4-(tetrahydro-pyran-4-ylsulfamoyl)-benzylamide] | 7.40 | 8.00 |
| CNS(=O)(=O)c1ccc(CNC(=O)N2CCCc3c2cnn3-c2ccc(F)cc2)c(Cl)c1 [Example 31] | 8.52 | 9.00 |
| CN(C)S(=O)(=O)c1cccc(CNC(=O)N2CCCc3c2cnn3-c2ccc(F)cc2)c1 [Example 33] | 7.72 |  |
| C[C@H](CO)NS(=O)(=O)c1ccc(CNC(=O)N2CCCc3c2cnn3-c2ccc(F)cc2)cc1 [Example 34] | 7.70 |  |
| C[C@@H](CO)NS(=O)(=O)c1ccc(CNC(=O)N2CCCc3c2cnn3-c2ccc(F)cc2)cc1 [Example 35] | 8.40 |  |
| CNS(=O)(=O)c1ccc(CNC(=O)N2CCCc3c2cnn3-c2ccc(F)cc2)c(F)c1 [Example 38] | 7.96 | 8.70 |
| CCCC(NC(=O)N1CCCc2c1cnn2-c1ccc(F)cc1)c1cncc(Br)c1 (centres unmarked) [Example 39] | 9.70 | 9.40 |
| O=C(NCc1cc(Cl)cc(Cl)c1)N1CCCc2c1cnn2-c1ccc(F)cc1 [Example 40] | 7.48 | 8.52 |
| C[C@H](NC(=O)N1CCCc2c1cnn2-c1ccc(F)cc1)c1cncc(Br)c1 [Example 41] | 8.22 | 8.70 |
| CC[C@H](NC(=O)N1CCCc2c1cnn2-c1ccc(F)cc1)c1cncc(Br)c1 [Example 42] | 9.40 | 9.70 |
| CCC[C@H](NC(=O)N1CCCc2c1cnn2-c1ccc(F)cc1)c1cncc(Br)c1 [Example 46] | 9.70 | 9.70 |
| CCC[C@H](NC(=O)N1CCCc2c1cnn2-c1ccc(F)cc1)c1cncc(S(C)(=O)=O)c1 [Example 47] | 9.40 | 9.70 |
| CC[C@H](NC(=O)N1CCCc2c1cnn2-c1ccc(F)cc1)c1ccc(Br)nc1 [Example 48, 1-(4-Fluorophenyl)-1,5,6,7-tetrahydro-pyrazolo[4,3-b]pyridine-4-carboxylic acid [(S)-1-(6-bromo-pyridin-3-yl)-propyl]-amide] | 7.72 | 8.70 |
| CCC[C@H](NC(=O)N1CCCc2c1cnn2-c1ccc(F)cc1)c1ccc(Br)nc1 [Example 49] | 7.92 | 8.70 |
| CCC[C@H](NC(=O)N1CCCc2c1cnn2-c1ccc(F)cc1F)c1ccnc(S(C)(=O)=O)c1 [Example 62] | 9.00 | 9.00 |
| CCC[C@H](NC(=O)N1CCCc2c1c(C)nn2-c1ccc(F)cc1)c1cncc(S(C)(=O)=O)c1 [Example 99] |  | 5.82 |
| CCC[C@H](NC(=O)N1c2cnn(-c3ccc(F)cc3)c2CCC1C(F)(F)F)c1ccc(Br)c(OC)c1 (some centres unmarked) [Example 104] |  | 7.24 |

The next lines start with the values.

| pIC50 [1] | pIC50 [2] | Compound |
| --- | --- | --- |
| 8.00 | 8.22 | CCC[C@H](NC(=O)N1c2cnn(-c3ccc(F)cc3)c2CCC1C(F)(F)F)c1ccnc(S(C)(=O)=O)c1 (single isomer, unassigned) [Example 56] |
| 8.52 | 8.52 | CCCC(NC(=O)N1CCCc2c1cnn2-c1ccc(F)cc1)c1ccc(S(C)(=O)=O)nc1 (centres unmarked) [Example 36] |
| 9.00 | 9.22 | CC[C@H](NC(=O)N1CCCc2c1cnn2-c1ccc(F)cc1)c1cncc(S(C)(=O)=O)c1 [Example 45] |
| 8.40 | 9.05 | CCC[C@H](NC(=O)N1CCCc2c1cnn2-c1ccc(F)cc1)c1ccc(S(C)(=O)=O)nc1 [Example 50] |
| 7.85 | 8.52 | CC[C@H](NC(=O)N1CCCc2c1cnn2-c1ccc(F)cc1)c1ccc(S(C)(=O)=O)nc1 [Example 51] |
| 7.89 | 7.92 | CC[C@H](NC(=O)N1c2cnn(-c3ccc(F)cc3)c2CCC1C)c1ccnc(S(C)(=O)=O)c1 (some centres unmarked) [Example 55] |
| 9.40 | 9.22 | CC[C@H](NC(=O)N1CCCc2c1cnn2-c1ccc(F)cc1)c1ccnc(S(C)(=O)=O)c1 [Example 59] |
| 9.30 | 9.52 | CCC[C@H](NC(=O)N1CCCc2c1cnn2-c1ccc(F)cc1)c1ccnc(S(C)(=O)=O)c1 [Example 60] |
| 7.92 | 8.10 | CCC[C@H](NC(=O)N1c2cnn(-c3ccc(F)cc3)c2CCC1C(F)(F)F)c1cncc(S(C)(=O)=O)c1 (some centres unmarked) [Example 61] |
|  | 9.22 | CCC[C@H](NC(=O)N1CC(C)Cc2c1cnn2-c1ccc(F)cc1)c1ccnc(S(C)(=O)=O)c1 (some centres unmarked) [Example 102] |
|  | 9.15 | CCC[C@H](NC(=O)N1CC(C)(C)Cc2c1cnn2-c1ccc(F)cc1)c1ccnc(S(C)(=O)=O)c1 [Example 103] |
|  | 8.30 | CCC[C@H](NC(=O)N1c2cnn(-c3ccc(F)cc3)c2CCC1C(F)(F)F)c1ccc(S(C)(=O)=O)c(OC)c1 (some centres unmarked) [Example 105] |
|  | 7.96 | CCC[C@H](NC(=O)N1c2cnn(-c3ccc(F)cc3)c2CCC1C(F)(F)F)c1ccc(S(C)(=O)=O)c(O)c1 (some centres unmarked) [Example 106] |
|  | 8.10 | CCC[C@H](NC(=O)N1c2cnn(-c3ccc(F)cc3)c2CCC1C)c1cccc(S(C)(=O)=O)n1 (some centres unmarked) [Example 107] |
|  | 8.05 | CCC[C@H](NC(=O)N1c2cnn(-c3ccc(F)cc3)c2CC1C)c1ccnc(S(C)(=O)=O)c1 (stereo partly drawn) [Example 108, 1-(4-Fluorophenyl)-5-methyl-5,6-dihydro-1H-pyrrolo[3,2-c]pyrazole-4-carboxylic acid [(S)-1-(2-methanesulfonyl-pyridin-4-yl)-butyl]-amide] |
|  | 7.96 | CC[C@H](NC(=O)N1c2cnn(-c3ccc(F)cc3)c2CC1C)c1cccc(S(C)(=O)=O)c1 (some centres unmarked) [Example 109] |
|  | 7.66 | CCC[C@H](NC(=O)N1c2cnn(-c3ccc(F)cc3)c2CC[C@@H]1C)c1cncc(S(C)(=O)=O)c1 [Example 111] |
|  | 9.15 | CCC[C@H](NC(=O)N1CC(C(=O)OCC)Cc2c1cnn2-c1ccc(F)cc1)c1ccnc(S(C)(=O)=O)c1 (stereo partly drawn) [Example 114, 1-(4-Fluorophenyl)-4-[(S)-1-(2-methanesulfonyl-pyridin-4-yl)-butylcarbamoyl]-4,5,6,7-tetrahydro-1H-pyrazolo[4,3-b]pyridine-6-carboxylic acid ethyl ester] |
|  | 7.64 | CCC[C@H](NC(=O)N1CC(C(=O)O)Cc2c1cnn2-c1ccc(F)cc1)c1ccnc(S(C)(=O)=O)c1 (stereo partly drawn) [Example 115, 1-(4-Fluorophenyl)-4-[(S)-1-(2-methanesulfonyl-pyridin-4-yl)-butylcarbamoyl]-4,5,6,7-tetrahydro-1H-pyrazolo[4,3-b]pyridine-6-carboxylic acid] |
|  | 9.00 | CCC[C@H](NC(=O)N1CC(C(=O)NC)Cc2c1cnn2-c1ccc(F)cc1)c1ccnc(S(C)(=O)=O)c1 (some centres unmarked) [Example 116] |
|  | 9.00 | CCC[C@H](NC(=O)N1CC(C(=O)NCCO)Cc2c1cnn2-c1ccc(F)cc1)c1ccnc(S(C)(=O)=O)c1 (some centres unmarked) [Example 117] |
